Experimental data taken from patent publication US10131652B2, “Pyrimidinyloxy benzene derivatives as herbicides” (E. I. DU PONT DE NEMOURS AND COMPANY, priority 2014, dated 2018).
Like-named read-outs stand apart in the source and are kept apart here.

Columns and labels:
Assay in all cases: Test E pre-/postemergence plant response
Format in all cases: in vivo
[1] = tested on: wild radish (Raphanus raphanistrum); conditions: scale 0 to 100, read-out: Plant response rating, Radish, Wild; for pest or weed control at 16 g/ha: 16 g ai/ha; for pest or weed control at 31 g/ha: 31 g ai/ha; for pest or weed control at 62 g/ha: 62 g ai/ha; for pest or weed control at 125 g/ha: 125 g ai/ha
From the text: (§1) Seeds of plant species selected from bluegrass (annual bluegrass, Poa annua), blackgrass (Alopecurus myosuroides), canarygrass (Phalaris minor), chickweed (common chickweed, Stellaria media), galium (catchweed bedstraw, Galium aparine), downy bromegrass (Bromus tectorum), field poppy (Papaver rhoeas), field violet (Viola arvensis), green foxtail (Setaria viridis), deadnettle (henbit deadnettle, Lamium amplexicaule), Italian ryegrass (Lolium multiflorum), kochia (Kochia scoparia), lambsquarters (Chenopodium album), oilseed rape (Brassica napus), pigweed (Amaranthus retroflexus), Russian thistle (Salsola iberica), chamomile (scentless chamomile, Matricaria inodora), speedwell (bird's-eye speedwell, Veronica persica), spring barley (Hordeum vulgare), spring wheat (Triticum aestivum), wild buckwheat (Polygonum convolvulus), wild mustard (Sinapis arvensis), wild oat (Avena fatua), wild radish (Raphanus raphanistrum), windgrass (Apera spica-venti), winter barley (Hordeum vulgare), and winter wheat (Triticum aestivum) were planted into a silt loam soil and treated preemergence with test chemicals formulated in a non-phytotoxic solvent mixture which included a surfactant. At the same time, these species were planted in pots containing Redi-Earth® planting medium (Scotts Company, 14111 Scottslawn Road, Marysville, Ohio 43041) comprising spaghnum peat moss, vermiculite, wetting agent and starter nutrients and treated with postemergence applications of the test chemicals formulated in the same manner. Plants ranged in height from 2 to 18 cm (1- to 4-leaf stage).
(§2) Treated plants and controls were maintained in a controlled growth environment for 7 to 21 days after which time all species were compared to controls and visually evaluated. Plant response ratings, summarized in Table E, are based on a scale of 0 to 100 where 0 is no effect and 100 is complete control. A dash (-) response means no test result.

[2] = tested on: bluegrass (annual bluegrass, Poa annua); conditions: scale 0 to 100, read-out: Plant response rating, Bluegrass; for pest or weed control at 16 g/ha: 16 g ai/ha; for pest or weed control at 31 g/ha: 31 g ai/ha; for pest or weed control at 62 g/ha: 62 g ai/ha; for pest or weed control at 125 g/ha: 125 g ai/ha
From the text: as §1, §2

[3] = tested on: winter barley (Hordeum vulgare); conditions: post-emergence, Postemergence, scale 0 to 100, read-out: Plant response rating, Barley, Winter
From the text: as §1, §2

[4] = tested on: oilseed rape (Brassica napus); conditions: scale 0 to 100, read-out: Plant response rating, Oilseed Rape; for plant injury at 16 g/ha: 16 g ai/ha; for plant injury at 31 g/ha: 31 g ai/ha; for plant injury at 62 g/ha: 62 g ai/ha; for plant injury at 125 g/ha: 125 g ai/ha
From the text: as §1, §2

[5] = tested on: downy bromegrass (Bromus tectorum); conditions: scale 0 to 100, read-out: Plant response rating, Bromegrass, Downy; for pest or weed control at 16 g/ha: 16 g ai/ha; for pest or weed control at 31 g/ha: 31 g ai/ha; for pest or weed control at 62 g/ha: 62 g ai/ha; for pest or weed control at 125 g/ha: 125 g ai/ha
From the text: as §1, §2

[6] = tested on: wild buckwheat (Polygonum convolvulus); conditions: Fallopia convolvulus, scale 0 to 100, read-out: Plant response rating, Buckwheat, Wild; for pest or weed control at 16 g/ha: 16 g ai/ha; for pest or weed control at 31 g/ha: 31 g ai/ha; for pest or weed control at 62 g/ha: 62 g ai/ha; for pest or weed control at 125 g/ha: 125 g ai/ha
From the text: as §1, §2

[7] = tested on: Italian ryegrass (Lolium multiflorum); conditions: scale 0 to 100, read-out: Plant response rating, Ryegrass, Italian; for pest or weed control at 16 g/ha: 16 g ai/ha; for pest or weed control at 31 g/ha: 31 g ai/ha; for pest or weed control at 62 g/ha: 62 g ai/ha; for pest or weed control at 125 g/ha: 125 g ai/ha
From the text: as §1, §2

[8] = tested on: kochia (Kochia scoparia); conditions: Bassia scoparia, scale 0 to 100, read-out: Plant response rating, Kochia; for pest or weed control at 16 g/ha: 16 g ai/ha; for pest or weed control at 31 g/ha: 31 g ai/ha; for pest or weed control at 62 g/ha: 62 g ai/ha; for pest or weed control at 125 g/ha: 125 g ai/ha
From the text: as §1, §2

[9] = tested on: chickweed (common chickweed, Stellaria media); conditions: scale 0 to 100, read-out: Plant response rating, Chickweed; for pest or weed control at 16 g/ha: 16 g ai/ha; for pest or weed control at 31 g/ha: 31 g ai/ha; for pest or weed control at 62 g/ha: 62 g ai/ha; for pest or weed control at 125 g/ha: 125 g ai/ha
From the text: as §1, §2

[10] = tested on: windgrass (Apera spica-venti); conditions: scale 0 to 100, read-out: Plant response rating, Windgrass; for pest or weed control at 16 g/ha: 16 g ai/ha; for pest or weed control at 62 g/ha: 62 g ai/ha; for pest or weed control at 125 g/ha: 125 g ai/ha
From the text: as §1, §2

[11] = tested on: galium (catchweed bedstraw, Galium aparine); conditions: scale 0 to 100, read-out: Plant response rating, Galium; for pest or weed control at 16 g/ha: 16 g ai/ha; for pest or weed control at 31 g/ha: 31 g ai/ha; for pest or weed control at 62 g/ha: 62 g ai/ha; for pest or weed control at 125 g/ha: 125 g ai/ha
From the text: as §1, §2

## FC(F)c1cc(-c2ccccc2Oc2ncc(Cl)cn2)no1 [Compound 35, 5-chloro-2-[2-[5-(difluoromethyl)-3-isoxazolyl]phenoxy]pyrimidine]
[1]; post-emergence, Postemergence
  pest or weed control at 16 g/ha: 65%
  pest or weed control at 31 g/ha: 75%
  pest or weed control at 62 g/ha: 85%
  pest or weed control at 125 g/ha: 95%
[1]; pre-emergence, Preemergence
  pest or weed control at 16 g/ha: 100%
  pest or weed control at 31 g/ha: 95%
  pest or weed control at 62 g/ha: 100%
  pest or weed control at 125 g/ha: 100%
[2]; post-emergence, Postemergence
  pest or weed control at 16 g/ha: 15%
  pest or weed control at 31 g/ha: 20%
  pest or weed control at 62 g/ha: 40%
  pest or weed control at 125 g/ha: 60%
[2]; pre-emergence, Preemergence
  pest or weed control at 16 g/ha: 0%
  pest or weed control at 31 g/ha: 35%
  pest or weed control at 62 g/ha: 35%
  pest or weed control at 125 g/ha: 70%
[3]; 16 g ai/ha
  plant injury at 16 g/ha: 0%
[3]; 31 g ai/ha
  plant injury at 31 g/ha: 0%
[3]; 62 g ai/ha
  plant injury at 62 g/ha: 5%
[3]; 125 g ai/ha
  plant injury at 125 g/ha: 30%
[4]; post-emergence, Postemergence
  plant injury at 16 g/ha: 70%
  plant injury at 31 g/ha: 80%
  plant injury at 62 g/ha: 95%
  plant injury at 125 g/ha: 100%
[4]; pre-emergence, Preemergence
  plant injury at 16 g/ha: 60%
  plant injury at 31 g/ha: 95%
  plant injury at 62 g/ha: 100%
  plant injury at 125 g/ha: 100%
[5]; post-emergence, Postemergence
  pest or weed control at 16 g/ha: 5%
  pest or weed control at 31 g/ha: 5%
  pest or weed control at 62 g/ha: 15%
  pest or weed control at 125 g/ha: 30%
[5]; pre-emergence, Preemergence
  pest or weed control at 16 g/ha: 0%
  pest or weed control at 31 g/ha: 35%
  pest or weed control at 62 g/ha: 35%
  pest or weed control at 125 g/ha: 25%
[6]; post-emergence, Postemergence
  pest or weed control at 16 g/ha: 75%
  pest or weed control at 31 g/ha: 85%
  pest or weed control at 62 g/ha: 90%
  pest or weed control at 125 g/ha: 95%
[6]; pre-emergence, Preemergence
  pest or weed control at 16 g/ha: 60%
  pest or weed control at 31 g/ha: 75%
  pest or weed control at 62 g/ha: 90%
  pest or weed control at 125 g/ha: 100%
[7]; post-emergence, Postemergence
  pest or weed control at 16 g/ha: 0%
  pest or weed control at 31 g/ha: 5%
  pest or weed control at 62 g/ha: 25%
  pest or weed control at 125 g/ha: 60%
[7]; pre-emergence, Preemergence
  pest or weed control at 16 g/ha: 0%
  pest or weed control at 31 g/ha: 25%
  pest or weed control at 62 g/ha: 35%
  pest or weed control at 125 g/ha: 75%
[8]; post-emergence, Postemergence
  pest or weed control at 16 g/ha: 75%
  pest or weed control at 31 g/ha: 75%
  pest or weed control at 62 g/ha: 80%
  pest or weed control at 125 g/ha: 90%
[8]; pre-emergence, Preemergence
  pest or weed control at 16 g/ha: 25%
  pest or weed control at 31 g/ha: 65%
  pest or weed control at 62 g/ha: 100%
  pest or weed control at 125 g/ha: 100%
[9]; post-emergence, Postemergence
  pest or weed control at 16 g/ha: 65%
  pest or weed control at 31 g/ha: 75%
  pest or weed control at 62 g/ha: 75%
  pest or weed control at 125 g/ha: 100%
[9]; pre-emergence, Preemergence
  pest or weed control at 16 g/ha: 55%
  pest or weed control at 31 g/ha: 100%
  pest or weed control at 62 g/ha: 95%
  pest or weed control at 125 g/ha: 100%
[10]; post-emergence, Postemergence
  pest or weed control at 16 g/ha: 10%
  pest or weed control at 62 g/ha: 30%
  pest or weed control at 125 g/ha: 40%
[10]; post-emergence, 31 g ai/ha, Postemergence
  pest or weed control at 31 g/ha: 25%
[10]; pre-emergence, Preemergence
  pest or weed control at 16 g/ha: 35%
  pest or weed control at 62 g/ha: 85%
  pest or weed control at 125 g/ha: 100%
[11]; post-emergence, Postemergence
  pest or weed control at 16 g/ha: 70%
  pest or weed control at 31 g/ha: 80%
  pest or weed control at 62 g/ha: 75%
  pest or weed control at 125 g/ha: 85%
[11]; pre-emergence, Preemergence
  pest or weed control at 16 g/ha: 25%
  pest or weed control at 31 g/ha: 55%
  pest or weed control at 62 g/ha: 100%
  pest or weed control at 125 g/ha: 100%
